Laboratory results reported in patent US8901138B2, “Sulfoximine substituted quinazolines for pharmaceutical compositions” (Boehringer Ingelheim International GmbH, priority 2012, dated 2014).

Legend:
MNK2a = biological target: T1, MNK2a (Homo sapiens, UniProt Q9HBH9); assay: MNK2a in vitro kinase assay (assay 1), ADP-Glo; type: biochemical; settings: preactivated GST-MNK2a, 20 μM ATP, read-out: MNK2 IC50
T1 construct: made in house
Summary of the method: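 Preactivated GST-MNK2a (10 nM) with eIF4E peptide (25 μM) and ATP (20 μM) in HEPES/DTT/MgCl2 buffer, 90 min at room temperature, final DMSO <3%. ADP formed read by ADP-Glo luminescence and normalised to vehicle and 20 μM reference-inhibitor controls; IC50 from dose-response curves.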

MNK1a = MNK1a (Homo sapiens, UniProt Q9BUB5); assay: MNK1 in vitro kinase assay (assay 2), Z'-LYTE; type: biochemical; settings: for inhibition at 1 µM: compound concentration of 1 μM; for IC50: pre-activated GST-MNK1a
Excerpt: B. MNK1 In Vitro Kinase Assay (Assay 2)
MNK1 Data can be obtained from the MNK1 Z′-LYTE® assay. The MNK1 Z′-LYTE® screening protocol and assay conditions are also described on www.invitrogen.com.
The assay is described as follows:
The Z′-LYTE® biochemical assay employs a fluorescence-based, coupled-enzyme format and is based on the differential sensitivity of phosphorylated and non-phosphorylated peptides to proteolytic cleavage. The peptide substrate is labeled with two fluorophores—one at each end—that make up a FRET pair.
In the primary reaction, the kinase transfers the gamma-phosphate of ATP to a single tyrosine, serine or threonine residue in a synthetic FRET-peptide. In the secondary reaction, a site-specific protease recognizes and cleaves non-phosphorylated FRET-peptides. Phosphorylation of FRET-peptides suppresses cleavage by the Development Reagent. Cleavage disrupts FRET between the donor (i.e., coumarin) and acceptor (i.e., fluorescein) fluorophores on the FRET-peptide, whereas uncleaved, phosphorylated FRET-peptides maintain FRET. A ratiometric method, which calculates the ratio (the Emission Ratio) of donor emission to acceptor emission after excitation of the donor fluorophore at 400 nm, is used to quantitate reaction progress, as shown in the equation below. Emission Ratio=Coumarin Emission(445 nm)/Fluorescein Emission(520 nm)
ASSAY SETUP: The inhibition of kinase activity of MNK1a was assessed using pre-activated GST-MNK1a. The 2×MKNK1 (MNK1) mixture is prepared in 50 mM HEPES pH 7.5, 0.01% BRIJ-35, 10 mM MgCl2, 4 mM MnCl2, 1 mM EGTA, 2 mM DTT. The final 10 μL Kinase Reaction consists of 13.5-54 ng MKNK1 (MNK1) and 2 μM Ser/Thr 07 in 50 mM HEPES pH 7.5, 0.01% BRIJ-35, 10 mM MgCl2, 2 mM MnCl2, 1 mM EGTA, 1 mM DTT. After the 1 hour Kinase Reaction incubation, 5 μL of a 1:32768 dilution of Development Reagent A is added.
The Test Compounds are screened in 1% DMSO (final) in the well.
All Peptide/Kinase Mixtures are diluted to a 2× working concentration in the MNK1 Kinase Buffer.
All ATP Solutions are diluted to a 4× working concentration in Kinase Buffer (50 mM HEPES pH 7.5, 0.01% BRIJ-35, 10 mM MgCl2, 1 mM EGTA).
Development Reagent Solution:
The Development Reagent is diluted in Development Buffer
Bar-coded Corning, low volume NBS, 384-well plate (Corning Cat. #3676)
1. 2.5 μL-4× Test Compound
2. 5 μL-2× Peptide/Kinase Mixture
5. 60-minute Kinase Reaction incubation at room temperature
6. 5 μL-Development Reagent Solution
8. 60-minute Development Reaction incubation at room temperature
9. Read on fluorescence plate reader and analyze the data
The following equations are used for each set of data points: […]
Correction for Background Fluorescence: FSample−FITCFl Ctl
Emission Ratio (using values corrected for background fluorescence):Coumarin
Emission (445 nm)/Fluorescein Emission (520 nm)
% Phosphorylation (% Phos): 1−((Emission Ratio×F100%)−C100%)/((C0%−C100%)+[Emission Ratio×(F100%−F0%)])*100 % Inhibition: 1−(% PhosSample/% Phos0% Inhibition Ctl)*100 FI=Fluorescence Intensity C100%=Average Coumarin emission signal of the 100% Phos. Control C0%=Average Coumarin emission signal of the 0% Phos. Control F100%=Average Fluorescein emission signal of the 100% Phos. Control F0%=Average Fluorescein emission signal of the 0% Phos. Control Graphing Software
SelectScreen® Kinase Profiling Service uses XLfit from IDBS. The dose response curve is curve fit to model number 205 (sigmoidal dose-response model).

T1 sequence (Q9HBH9 whole entry): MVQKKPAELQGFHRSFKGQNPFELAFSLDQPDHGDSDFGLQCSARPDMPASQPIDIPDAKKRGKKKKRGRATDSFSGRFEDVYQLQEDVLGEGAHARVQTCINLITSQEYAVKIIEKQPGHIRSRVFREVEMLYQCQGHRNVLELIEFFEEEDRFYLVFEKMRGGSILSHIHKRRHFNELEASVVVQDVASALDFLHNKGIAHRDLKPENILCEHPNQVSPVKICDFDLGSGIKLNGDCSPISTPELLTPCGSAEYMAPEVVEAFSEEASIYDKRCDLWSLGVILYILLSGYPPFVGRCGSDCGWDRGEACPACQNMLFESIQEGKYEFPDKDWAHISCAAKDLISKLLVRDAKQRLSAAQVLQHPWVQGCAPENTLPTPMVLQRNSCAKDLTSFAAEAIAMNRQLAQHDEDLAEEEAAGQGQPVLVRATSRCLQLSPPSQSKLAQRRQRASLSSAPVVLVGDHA
Chain of MNK1a (Q9BUB5 1-424 isoform Q9BUB5-2): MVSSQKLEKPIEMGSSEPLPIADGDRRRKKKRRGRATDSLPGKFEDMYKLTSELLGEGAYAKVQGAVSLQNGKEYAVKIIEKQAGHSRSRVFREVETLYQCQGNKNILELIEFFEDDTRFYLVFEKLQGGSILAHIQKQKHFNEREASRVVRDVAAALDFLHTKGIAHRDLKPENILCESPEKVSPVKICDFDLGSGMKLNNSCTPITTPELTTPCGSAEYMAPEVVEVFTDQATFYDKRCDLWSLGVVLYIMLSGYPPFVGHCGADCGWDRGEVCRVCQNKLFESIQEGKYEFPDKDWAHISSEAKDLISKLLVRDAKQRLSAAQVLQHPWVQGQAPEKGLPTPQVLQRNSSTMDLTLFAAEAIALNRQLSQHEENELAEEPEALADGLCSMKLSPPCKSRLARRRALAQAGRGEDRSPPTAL

| Compound | IC50 (MNK2a) | inhibition at 1 µM (MNK1a) | IC50 (MNK1a) |
| --- | --- | --- | --- |
| CO[C@H]1CC[C@H](Oc2cc(F)ccc2Nc2ncnc3cc(N=S4(=O)CCN(C(C)=O)CC4)cc(C)c23)CC1 [Example 7.2] | 6 nM | 82% | – |
| Cc1cc(N=S(C)(C)=O)cc2ncnc(Nc3ccc(F)cc3O[C@H]3CO[C@H]4[C@@H]3OC[C@@H]4O)c12 [Example 2.80] | 19 nM | 73% | – |
| Cc1cc(N=S2(=O)CCCCC2)cc2ncnc(Nc3ccc(F)cc3O[C@@H]3CO[C@H]4[C@@H]3OC[C@H]4O)c12 [Example 2.51] | 3 nM | 101% | – |
| Cc1cc(N=S(C)(C)=O)cc2ncnc(Nc3ccc(F)cc3OC3CNOC3)c12 (stereo not shown) [Example 7.18] | 2 nM | 93% | – |
| CCS(C)(=O)=Nc1cc(C)c2c(Nc3ccc(F)cc3O[C@@H]3CO[C@H]4[C@@H]3OC[C@H]4O)ncnc2c1 (stereo partly shown) [Example 2.33] | 3 nM | 100% | – |
| Cc1cc(N=S(C)(=O)c2ccccn2)cc2ncnc(Nc3ccc(F)cc3O[C@@H]3CO[C@@H]4CCO[C@@H]43)c12 (stereo partly shown) [Example 2.11] | 6 nM | 92% | – |
| CCOc1cc(N=S(C)(C)=O)cc2ncnc(Nc3ccc(F)cc3O[C@H]3CCOC3)c12 [Example 5.1] | 2 nM | 101% | – |
| COc1cc(N=S(C)(C)=O)cc2ncnc(Nc3ccc(F)cc3O[C@@H]3CO[C@H]4[C@@H]3OC[C@H]4OC)c12 [Example 2.1] | 1 nM | – | 11 nM |
| CO[C@@H]1CCCC[C@H]1Oc1cc(F)ccc1Nc1ncnc2cc(N=S(C)(C)=O)cc(C)c12 [Example 2.67] | 3 nM | 85% | – |
| CO[C@H]1CC[C@H](Oc2ncccc2Nc2ncnc3cc(N=S(C)(C)=O)cc(F)c23)CC1 [Example 2.49] | 4 nM | 86% | – |
| CS(C)(=O)=Nc1cc(F)c2c(Nc3ccc(F)cc3O[C@@H]3CCCN(CC(F)(F)F)C3)ncnc2c1 [Example 6.13] | 4 nM | 80% | – |
| CO[C@@H]1CO[C@H]2[C@@H]1OC[C@H]2Oc1cc(F)ccc1Nc1ncnc2cc(N=S(C)(C)=O)cc(Br)c12 [Example 1.20] | 1 nM | 100% | – |
| Cc1cc(N=S(C)(C)=O)cc2ncnc(Nc3ccc(F)cc3OC3(C)CCC3)c12 [Example 1.29] | 2 nM | 92% | – |
| Cc1cc(N=S2(=O)CCC(O)CC2)cc2ncnc(Nc3ccc(F)cc3O[C@H]3CCOC3)c12 (stereo partly shown) [Example 2.97] | 2 nM | 93% | – |
| Cc1cc(N=S(C)(C)=O)cc2ncnc(Nc3ccc(C#N)cc3O[C@H]3CC[C@H](O)CC3)c12 [Example 2.65] | 5 nM | 98% | – |
| Cc1cc(N=S2(=O)CCC2)cc2ncnc(Nc3ccc(F)cc3O[C@H]3CC[C@H](O)CC3)c12 [Example 2.110] | 2 nM | 100% | – |
| CSc1cc(N=S(C)(C)=O)cc2ncnc(Nc3ccc(F)cc3O[C@H]3CCOC3)c12 [Example 7.10] | 2 nM | 100% | – |
| Cc1cc(N=S2(=O)CCCC2)cc2ncnc(Nc3ccc(F)cc3O[C@@H]3CCCNC3)c12 [Example 3.12] | 3 nM | 95% | – |
| Cc1cc(N=S(C)(C)=O)cc2ncnc(Nc3cccnc3O[C@@H]3CCCNC3)c12 [Example 3.6] | 69 nM | 80% | – |
| Cc1cc(N=S2(=O)CCCC2)cc2ncnc(Nc3ccsc3O[C@@H]3CCOC3)c12 [Example 2.8] | 44 nM | 64% | – |
| Cc1cc(N=S(C)(C)=O)cc2ncnc(Nc3ccc(F)nc3O[C@H]3CCOC3)c12 [Example 1.40] | 3 nM | 94% | – |

| Compound | IC50 (MNK2a) | inhibition at 1 µM (MNK1a) | IC50 (MNK1a) |
| --- | --- | --- | --- |
| Cc1cc(N=[S@](C)(=O)c2ccccc2)cc2ncnc(Nc3ccc(F)cc3O[C@H]3CCOC3)c12 [Example 2.72] | 30 nM | 71% | – |
| Cc1cc(N=S(C)(C)=O)cc2ncnc(Nc3ccc(Cl)nc3O[C@H]3CCOC3)c12 [Example 1.41] | 3 nM | – | 74 nM |
| Cc1cc(N=S(C)(=O)c2ccncc2)cc2ncnc(Nc3ccc(F)cc3O[C@H]3CCOC3)c12 (stereo partly shown) [Example 2.100] | 6 nM | 89% | – |
| Cc1cc(N=S(C)(=O)C2CCOCC2)cc2ncnc(Nc3ccc(F)cc3O[C@H]3CCOC3)c12 (stereo partly shown) [Example 2.101] | 5 nM | 93% | – |
| Cc1cc(N=S(C)(C)=O)cc2ncnc(Nc3ccc(F)cc3OC3(C)CCOC3)c12 (stereo not shown) [Example 1.32] | 7 nM | – | 149 nM |
| CO[C@H]1CC[C@H](Oc2cc(F)ccc2Nc2ncnc3cc(N=S4(=O)CCOCC4)cc(F)c23)CC1 [Example 2.56] | 11 nM | 76% | – |
| Cc1cc(N=S(C)(C)=O)cc2ncnc(Nc3ccc(F)cc3O[C@@H]3CCCN(CCO)C3)c12 [Example 6.9] | 5 nM | 95% | – |
| CO[C@@H]1CO[C@H]2[C@@H]1OC[C@H]2Oc1cc(F)ccc1Nc1ncnc2cc(N=S(C)(C)=O)cc(Cl)c12 [Example 1.2] | 1 nM | – | 13 nM |
| Cc1cc(N=S(C)(C)=O)cc2ncnc(Nc3ccc(F)cc3O[C@@H]3CCCN(CC(F)(F)F)C3)c12 [Example 6.6] | 2 nM | 92% | – |
| Cc1cc(N=S(C)(C)=O)cc2ncnc(Nc3ccc(F)cc3OC3CC3)c12 [Example 7.12] | 4 nM | – | 87 nM |
| Cc1cc(N=S(C)(C)=O)cc2ncnc(Nc3ccc(F)cc3O[C@@H]3CO[C@@H]4CCO[C@@H]43)c12 [Example 2.121] | 4 nM | 89% | – |
| CO[C@@H]1CO[C@H]2[C@@H]1OC[C@H]2Oc1cc(F)ccc1Nc1ncnc2cc(N=S(C)(C)=O)cc(C)c12 [Example 2.34] | 1 nM | – | 17 nM |
| CS(C)(=O)=Nc1cc(F)c2c(Nc3ccc(F)cc3O[C@H]3CC[C@@](C)(O)CC3)ncnc2c1 [Example 2.35] | 4 nM | 95% | – |
| CCOc1cc(N=S(C)(C)=O)cc2ncnc(Nc3ccc(F)cc3O[C@H]3CC[C@H](OC)CC3)c12 [Example 5.4] | 15 nM | 78% | – |
| CS(C)(=O)=Nc1cc(F)c2c(Nc3ccc(F)cc3O[C@@H]3CCN(CCO)C3)ncnc2c1 [Example 6.15] | 24 nM | 82% | – |
| CS(C)(=O)=Nc1cc(F)c2c(Nc3cccnc3O[C@@H]3CCCNC3)ncnc2c1 [Example 3.1] | 111 nM | 50% | – |
| CO[C@@H]1CO[C@H]2[C@@H]1OC[C@H]2Oc1cc(F)ccc1Nc1ncnc2cc(N=S(C)(C)=O)cc(OCC(F)F)c12 [Example 5.7] | 2 nM | – | 43 nM |
| Cc1cc(N=S(C)(=O)C(C)(C)C)cc2ncnc(Nc3ccc(F)cc3O[C@@H]3CO[C@@H]4CCO[C@@H]43)c12 (stereo partly shown) [Example 2.108] | 3 nM | 99% | – |
| Cc1cc(N=S(C)(C)=O)cc2ncnc(Nc3ccc(F)cc3O[C@@H]3CO[C@H]4[C@@H]3OC[C@@]4(C)O)c12 [Example 2.45] | 2 nM | 90% | – |
| Cc1cc(N=S(C)(C)=O)cc2ncnc(Nc3ccc(F)cc3O[C@@H]3CCCNC3)c12 [Example 3.9] | 10 nM | 89% | – |
